By melting point is commonly meant the temperature of the solid-liquid transition.

Structures are written as SMILES.

Results on three compounds are retold here after patent publication US20090176968A1, “Preparation of Triazole Containing Metal Chelating Agents” (PAUL SCHERRER INSTITUT, priority 2006, published 2009).

Turning to `N[C@@H](Cn1cc(Cc2ccccc2)nn1)C(=O)O` [Compound L7], the melting point is > 220 °C (dec.). The same measure for `NC(Cc1cn(Cc2ccccc2)nn1)C(=O)O` (stereo not drawn) [Compound L1]: > 195 °C (dec.).

`CCOC(=O)Cn1cc(C[C@H](N)C(=O)O)nn1` [Compound L3]: the melting point fell in the range of 272 to 274 °C.
